The record followed here is patent US5883074A, “Potentiators of antibacterial agents” (priority 1995, dated 1999).

A value given as a limit tells only on which side of the number the result lay.

Experiment [1] has as its system MRSA strain MRSA76. In words: Methicillin potentiation (methicillin MIC reduction), FIG. 1. The following applies: potentiator at 0, 5, and 10 μg/ml. Format: cell-based, Staphylococcus aureus. On the procedure: (§1) The methicillin MIC at 0, 5, and 10 μg/ml of the potentiating molecules is shown. The structures of the two potentiating molecules are also shown. These potentiators were identified by screening by the methods of Examples 1 and 2, and the MIC reduction evaluated by the method of Example 3.
(§2) Compounds which meet the first two criteria for follow-up are evaluated in a standard microdilution assessment of the MIC with methicillin for MRSA. (see Lorian, Antibiotics in Laboratory Medicine, 3rd ed., pp. 72-75 (1991).) In order to be carried further, the MIC of methicillin preferably is reduced in the presence of the potentiator to at most twice the MIC of a susceptible strain for methicillin. (However, that level of reduction is not essential, since in particular circumstances a potentiator which provides a lesser reduction in the MIC can be useful.) In cases where susceptibility breakpoints are not available or the organism is not resistant to the drug whose action is being potentiated, the MIC preferably must be reduced by several twofold dilutions. We describe herein two compounds identified as having methicillin potentiating activity. These two potentiators meet the first three desired pharmacologic criteria as described above: (1) Potentiation of an anti-bacterial agent, (2) Little or no inhibition of the target organisms when used alone, and (3) Ability to reduce the MIC of an antibacterial agent to less than or equal to two times the MIC of an equivalent bacterial strain susceptible to that agent.
(§3) MICs for the compounds were determined in the presence of 0, 5, and 10 μg/ml of each compound. MRSA cells were grown in the presence of 0, 5, and 10 μg/ml test compound and concentrations of methicillin obtained from serial two-fold dilutions starting at 1024 μg/ml to 0.002 μg/ml (This range can be extended or refined as appropriate.) as follows: A fresh inoculum of MRSA cells was grown at 35° C. in Mueller-Hinton Broth (MHB) overnight and then diluted 1/50 in the same medium. After regrowth at 35° C. to an OD600 of 0.2-0.4 (1-2 hrs.), the cells were diluted 1/1000 in MHB. In a microtiter plate, 50 μl of this diluted culture were combined with 50 μl MHB containing 0, 10, or 20 μg/ml test compound to give starting growth conditions of 5×10^5 cfu/ml in MHB, with 0, 5, or 10 μg/ml test compound. The plate was placed in a humidified 35° C. incubator for 24 hours, and cell growth or inhibition was read as turbidity (OD600).

For experiment [2], the system named is MRSA strain Col. The description is as above. Format: cell-based, Staphylococcus aureus. Conditions: potentiator at 0, 5, and 10 μg/ml. As for the experimental part: as §1, §2, §3
Experiment [3] concerns MRSA. Description: Potentiation screening assay: methicillin MIC reduction in MRSA. In kind it is cell-based, Staphylococcus aureus. Conditions: 0, 5, and 10 μg/ml test compound. On the procedure:
After regrowth at 35° C. to an OD600 of 0.2-0.4 (1-2 hrs.), the cells are diluted 1/1000 in MHB. […] The plate is placed in a humidified 35° C. incubator for 5-24 hours, and cell growth or inhibition is read as turbidity (OD600). Two positive and one negative controls for growth are cells grown MHB, cells grown in MHB plus 20 μg/ml methicillin alone (without test compound), and uninoculated MHB respectively.
Compounds which meet the first two criteria for follow-up are evaluated in a standard microdilution assessment of the MIC with methicillin for MRSA. (see Lorian, Antibiotics in Laboratory Medicine, 3rd ed., pp. 72-75 (1991).) In order to be carried further, the MIC of methicillin preferably is reduced in the presence of the potentiator to at most twice the MIC of a susceptible strain for methicillin.
as §3, with “In a microtiter plate, 50 μl of this diluted culture were combined with 50 μl MHB containing 0, 10, or 20 μg/ml test compound to give starting growth conditions of 5×10^5 cfu/ml in MHB, with 0, 5, or 10 μg/ml test compound.” left out

Experiment [4] has as its system MRSA. Description: Specificity: intrinsic antibacterial activity without antibacterial agent. Format: cell-based, Staphylococcus aureus. Conditions: test compound alone, without methicillin. As for the experimental part:
In order to ascertain that the test compound is not primarily responsible for inhibition of growth, MRSA cells are grown in the presence of 5 μg/ml test compound as follows: A fresh inoculum of MRSA cells is grown at 35° C. in Mueller-Hinton Broth (MHB) overnight and then diluted 1/50 in the same medium. After regrowth at 35° C. to an OD600 of 0.2-0.4 (1-2 hrs.), the cells are diluted 1/1000 in MHB. In a microtiter plate, 50 μl of this diluted culture is combined with 50 μl MHB containing 10 μg/ml test compound to give starting growth conditions of 5×10^5 cfu/ml in MHB, with 5 μg/ml test compound. The plate is placed in a humidified 35° C. incubator for 5-24 hours, and cell growth or inhibition is read as turbidity (OD600). To be carried forward to the next step of the potentiator screening assay, the test compound should have little or no intrinsic anti-staphylococcal activity (growth should be at least 75% of the growth of the positive control without methicillin, corrected for background), or that activity should be explicable without indicating the probability of human toxicity.

In experiment [5] the test system is MRSA Col cells. Description: Time-kill curve with methicillin. In kind it is cell-based, Staphylococcus aureus. On the procedure: FIG. 3a is a graph of the number of viable MRSA Col cells/ml versus growth time in hours as determined by the method of Example 4. The graph presents the time kill curve for the first potentiating compound from FIG. 1 at 10 μg/ml with methicillin at 20 μg/ml, and curves for controls (drug-free, methicillin only, and potentiator only). Viable cell counts for all controls were greater than 5×10^8 cells/ml at 24 hours, while the viable cell count for methicillin plus potentiator was approximately 5×10^3 cells/ml after 24 hours.
A standard time-kill method (see Eliopolous & Moellering, Ch. 13 in Antibiotics in Laboratory Medicine, 3rd ed., Lorian ed., at pp. 441-444) is used to characterize whether the potentiator-drug combination is bacteriostatic or bactericidal. As controls, normal growth of the pathogen (without drug or potentiator) and the effects of the drug alone and the potentiator alone are assessed using the same inoculum culture as is used in the combination time-kill test. Either bacteriostatic or bactericidal effect should be confirmed for the potentiators to progress to further testing.

The subject of experiment [6] is methicillin sensitive strain Col8A. In words: Methicillin MIC in methicillin sensitive strain with potentiator, FIG. 1. Format: cell-based, Staphylococcus aureus. Conditions: potentiator at 0, 5, and 10 μg/ml.
The test system of experiment [7] is Enterococcus faecium. In words: Ampicillin potentiation screen. Conditions: highly ampicillin-resistant Enterococcus faecium, ampicillin alone. Format: cell-based. On the procedure:
The ampicillin potentiation screen is a high-throughput (96 well), whole cell assay in which compounds of unknown pharmacological activity are tested for their ability to induce an ampicillin-susceptible phenotype in highly ampicillin-resistant Enterococcus faecium (MIC of ampicillin>100μg/ml). These highly ampicillin-resistant bacteria are grown in the presence of ampicillin and various test compounds. The concentration of ampicillin used is well below the MIC for the resistant cells, but higher than the MIC for the isogeneic susceptible cells. Therefore, resistant cells can grow in the presence of the ampicillin without test compound, but the growth of susceptible cells is repressed. Growth is assessed after 5-24 hours by turbidity. Compounds are also tested for intrinsic antibacterial activity in the absence of ampicillin. Compounds which repress Enterococcus faecium growth when used together with ampicillin, which show no, or only a little, intrinsic antibacterial activity, are considered potentiators. […]
A fresh inoculum of E. faecium cells are grown at 35° C. in Brain-Heart Infusion Broth (BHI) overnight and then diluted 1/50 in the same medium. […] The plate is placed in a humidified 35° C. incubator for 24 hours, and cell growth or inhibition is read as turbidity (OD600). […]

Experiment [8] relates to MRSA strain Col 2278. Description: Imipenem potentiation (MIC reduction), FIG. 4. In kind it is cell-based, Staphylococcus aureus. The following applies: compound at 10 μg/ml. On the procedure:
(§4) FIG. 4 is a table showing the imipenem potentiation effect of the second compound from FIG. 1 at 10 μg/ml in 5 MRSA strains (Col, Col 2278, sa 038, Spain 356, and Spain 195).

The subject of experiment [9] is MRSA strain Spain 195. Description: Imipenem potentiation (MIC reduction), FIG. 4. Format: cell-based, Staphylococcus aureus. Conditions: compound at 10 μg/ml. As for the experimental part:
as §4

The subject of experiment [10] is MRSA strain Col. In words: Imipenem potentiation (MIC reduction), FIG. 4. In kind it is cell-based, Staphylococcus aureus. Conditions: compound at 10 μg/ml. On the procedure: as §4
Experiment [11] relates to MRSA strain Col. In words: Potentiating effect for 17 antimicrobial agents (MIC reduction), FIG. 2. In kind it is cell-based, Staphylococcus aureus. As for the experimental part:
FIG. 2 is a table showing the potentiating effect of one of the potentiating molecules from FIG. 1 for 17 antimicrobial agents in MRSA strain Col. The MIC is shown at 0, 5, and 10 μg/ml of potentiator.
as §3
The procedures used in Examples 1-3 to determine potentiation activity, and MIC reduction have been carried out using larixol acetate as the test compound and various antibacterial agents in place of methicillin. […]

As for `COc1ccc2c(c1)CCC1C2CCC2CC(O)CCC21C` (stereo not drawn) [HMM-dodecahydrochrysene, 2-hydroxy-8-methoxy-4a-methyl-1,2,3,4,4a,4b,5,6,10b,11,12,12a-dodecahydrochrysene], the figures for the “reduction of methicillin MIC” value in experiment [1], in [2] and in experiment [6] were “reducing the methicillin MIC”, “reducing the methicillin MIC” and “absence of a reduction in the MIC”, respectively. In experiment [3], the “effect on the MIC for methicillin” value was “reduce the MIC for methicillin”. In [4], the intrinsic antimicrobial activity entry is “not exhibiting intrinsic antimicrobial activity”. The “viable cell count, methicillin plus potentiator” value in experiment [5] (potentiator 10 μg/ml with methicillin 20 μg/ml, after 24 hours) is given as “approximately 5×10^3 cells/ml”. In experiment [5] (potentiator only, at 24 hours), the “viable cell count, potentiator only (control)” value is “greater than 5×10^8 cells/ml”.

In general, MIC refers to the lowest concentration that inhibits growth of the organism. `CC1(C)S[C@@H]2[C@H](NC(=O)[C@H](N)c3ccccc3)C(=O)N2[C@H]1C(=O)O` [ampicillin]: the MIC in experiment [7] was > 100 µg/mL.

Turning to `C=CC(C)(O)CCC1C(=C)CC(OC(C)=O)C2C(C)(C)CCCC12C` (stereo not drawn) [larixol acetate], the “imipenem MIC reduction” value in [8], in experiment [9] and in [10] was “three orders of magnitude” throughout. In addition, the “reduction of methicillin MIC” value in experiment [1] is listed as “reducing the methicillin MIC”; in experiment [2] it was “reducing the methicillin MIC”; in [6], “absence of a reduction in the MIC”. The “effect on the MIC for methicillin” value in experiment [3] is “reduce the MIC for methicillin”. The “MIC reduction of antimicrobial agents” value in experiment [11] (potentiator at 0, 5, and 10 μg/ml, range of β-lactams, including methicillin, cefazolin, and imipenem) is given as “Significant MIC reduction”. Moreover, the “MIC with potentiator relative to MIC of the antibacterial agent in the absence of the potentiator” value in [11] (some β-lactams, larixol acetate as potentiator) was “less than 10^-3”. Also, in experiment [4], the intrinsic antimicrobial activity result is given as “not exhibiting intrinsic antimicrobial activity”.
